Earlier results as cited in patent WO2005058299A1, “Phenethanolamine derivatives for treatment of respiratory diseases” (Glaxo Group Ltd, priority 2003, dated 2005).

Tested on: PDE4
Details: IC50 for PDE4 form which binds rolipram with high affinity divided by IC50 for form which binds rolipram with low affinity

IC50 ratio | Molecule
≥ 0.1 | c/s-[4-cyano-4-(3-cyclopropylmethoxy-4- difluoromethoxyphenyl)cyclohexan-1-ol]
≥ 0.1 | COC(=O)C1CC(C#N)(c2ccc(OC(F)F)c(OCC3CC3)c2)CCC1=O (stereo not drawn) [2-carbomethoxy-4-cyano-4-(3-cyclopropylmethoxy-4-difluoromethoxyphenyl)cyclohexan-1-one]

Molecule | IC50 ratio
COc1ccc([C@]2(C#N)CC[C@@H](C(=O)O)CC2)cc1OC1CCCC1 [cis 4-cyano-4-(3-cyclopentyloxy-4-methoxyphenyl)cyclohexan-1-carboxylic acid] | ≥ 0.1
